Holding throughout (assay type): cell-based
Assay [1] relates to metastasis associated in colon cancer 1 (MACC1). The assay is described as follows: Gene array analysis of MACC1 mRNA in human coronary artery endothelial cells. The following applies: TNF alpha 5 ng/ml, 6 hours. As to the method: (§1) Human coronary artery endothelial cells (Cambrex BioScience; Walkersville, Md.) were split into T-75 flasks (BD Falcon) and cultured in endothelial cell basal medium (EBM) with 2% fetal bovine serum (FBS) and growth factors (SingleQuotsTM, Clonetics, San Diego, Calif.) in 5% CO2 at 37° C. […] After 6 hours of incubation, total RNA was isolated using RNAqueous kits (Ambion, Austin, Tex.) as described by the manufacturer. mRNA samples were reverse-transcribed using Taqman Reverse Transcription Reagents Kits (Applied Biosystems, Inc.) and analyzed by gene array analysis using […] plus 2 chip sets (Affimetrix). All procedures and analysis of gene array data were performed in the UTMB Molecular Genomics and MicroArray Core Facility.

Assay [2] concerns bone morphogenetic protein 9 (BMP9). In words: Gene array analysis of BMP9 expression in human coronary artery endothelial cells. The following applies: TP508 50 μg/ml or TNF alpha 5 ng/ml, 6 hours. The protocol: Human coronary artery endothelial cells (Cambrex BioScience; Walkersville, Md.) were split into T-75 flasks (BD Falcon) and cultured in endothelial cell basal medium (EBM) with 2% fetal bovine serum (FBS) and growth factors (SingleQuotsTM, Clonetics, San Diego, Calif.) in 5% CO2 at 37° C. […] All procedures and analysis of gene array data were performed in the UTMB Molecular Genomics and MicroArray Core Facility.

Assay [3] deals with melanoma cell adhesion molecule (MCAM). The assay is described as follows: Gene array analysis of MCAM expression in human coronary artery endothelial cells. The following applies: TNF alpha 5 ng/ml, 6 hours. The protocol:
as §1

In a further assay the test system is snail homolog 3 (SNAI3). In words: Gene array analysis of SNAI3 expression in human coronary artery endothelial cells. The following applies: TNF alpha 5 ng/ml, 6 hours. The protocol:
as §1, with “(Affimetrix).” for “(Affimetrix). All procedures and analysis of gene array data were performed in the UTMB Molecular Genomics and MicroArray Core Facility.”

The test system of assay [4] is human microvascular endothelial cells. In words: Phase contrast micrographs of human microvascular endothelial cells co-incubated with KML4A cells. The following applies: after 22 hours; TP508 50 μg/ml 8 hours pretreatment; thrombin 2 U/ml or TNF alpha 5 ng/ml 16 hours. As to the method:
Human microvascular endothelial cells (Cambrex BioScience; Walkersville, Md.) were plated on 48-well tissue culture plates (BD Falcon) 30,000 cells per well, and cultured in endothelial cell basal medium (EBM) with 2% fetal bovine serum (FBS) and growth factors (SingleQuots™, Clonetics, San Diego, Calif.) in 5% CO2 at 37° C. for three days. […] Photomicrographs were captured at various times after addition of KML4A cells using an inverted Leitz Diavert microscope (original magnification, 200×) equipped with Spot Idea™ digital camera (Diagnostic Instruments, Inc.). Micrographs were taken at the center of each well to avoid any differences in original cell density.

Assay [5] has as its system bovine aortic endothelial cells. In words: Binding of KML4A colon cancer cells to bovine aortic endothelial cell monolayers. The following applies: TNF alpha 50 ng/ml for 24 hours; binding after 30 minutes.
Description: In this experiment, bovine aortic endothelial cells (BAEC; Cambrex BioScience; Walkersville, Md.) were plated in 24-well plastic tissue culture plates (BD Falcon™) at a density of 35,000 cells per cm^2 and cultured in endothelial cell basal medium (EBM) with 2% fetal bovine serum (FBS) and growth factors (SingleQuots™, Clonetics, San Diego, Calif.) in 5% CO2 at 37° C. for three days. BAEC monolayer cultures were then pretreated with saline (Control) or TP508 (TP) and then treated with saline or TNF alpha (TNF, 50 ng/ml) for 24 hours. KML4A cells were labeled with fluorescent CytoTracker™ as described in Example 1 above and added to the BAEC monolayers in EBM medium complete with fetal bovine serum and SingleQuot growth factor supplements (30,000 cells per well). After thirty (30) minutes, the cell monlayers were rinsed two times to remove unbound KML4A cells and the monolayers were solubilized using 200 μl of Cell Solubilizing Solution (Cell Biolabs, Inc.). Fluorescence of the solubilized KML4A that had bound to the endothelial cells was measured by transferring aliquots of the solubilized monolayers to 96-well black plates and reading them in a SyQuest BioLabs Fluorescent Plate Reader (480 nm/520 nm). Data is expressed as Relative Fluorescence Units.
Assay [6] relates to human umbilical vein endothelial cells. In words: Transendothelial migration of KML4A tumor cells through human umbilical vein endothelial cell monolayer. The following applies: thrombin 2 U/ml for 24 hours; migration after 18 hr.
Assay [7] has the same test system. In words: Phase contrast micrographs of human umbilical vein endothelial cells co-incubated with KML4A cells. The following applies: after 22 hours; thrombin 2 U/ml 16 hours, with or without TP508 50 μg/ml 8 hours pretreatment. The source says:
Photomicrographs were captured at various times after addition of KML4A cells using an inverted Leitz Diavert microscope (original magnification, 200×) equipped with Spot Idea™ digital camera (Diagnostic Instruments, Inc.). Micrographs were taken at the center of each well to avoid any differences in original cell density.

With TNF alpha, in assay [1], the “effect on endothelial cell expression of MACC1 mRNA” value is “increases endothelial cell expression of MACC1”. The “effect on expression of BMP9” value in assay [2] was “does not”. Moreover, in assay [3], the “effect on endothelial cell expression of MCAM” value is listed as “increases endothelial cell expression of MCAM”. Further, in the assay on snail homolog 3 (SNAI3), the “effect on endothelial cell expression of SNAI3” value was “increases endothelial cell expression of SNAI3”. Moreover, the “endothelial cell damage and loss after co-incubation with KML4A cells” value in assay [4] is “damaged and released from the culture substrate”. The “increase of binding of KML4A cells” value in assay [5] is listed as “approximately 8 fold”.
For Thrombin, the “effect on KML4A transedothelial migration” value in assay [6] is “increased transedothelial migration”. Moreover, the “endothelial cells remaining after co-incubation with KML4A cells” value in assay [7] is on record as “few if any remaining endothelial cells”. The “endothelial cell damage and loss after co-incubation with KML4A cells” value in assay [4] was “damaged and released from the culture substrate”.

The values above are taken from patent US20110319340A1, “METHODS FOR TREATING CANCER” (The Board of Regents, The University of Texas System, priority 2008, published 2011).
